Drawing on patent US7064120B2, “Tricyclic pyridyl carboxamides and derivatives thereof tocolytic oxytocin receptor antagonists” (Wyeth, priority 2001, dated 2006), this text covers inhibition for twelve molecules.

T1 sequence (P30518 whole entry): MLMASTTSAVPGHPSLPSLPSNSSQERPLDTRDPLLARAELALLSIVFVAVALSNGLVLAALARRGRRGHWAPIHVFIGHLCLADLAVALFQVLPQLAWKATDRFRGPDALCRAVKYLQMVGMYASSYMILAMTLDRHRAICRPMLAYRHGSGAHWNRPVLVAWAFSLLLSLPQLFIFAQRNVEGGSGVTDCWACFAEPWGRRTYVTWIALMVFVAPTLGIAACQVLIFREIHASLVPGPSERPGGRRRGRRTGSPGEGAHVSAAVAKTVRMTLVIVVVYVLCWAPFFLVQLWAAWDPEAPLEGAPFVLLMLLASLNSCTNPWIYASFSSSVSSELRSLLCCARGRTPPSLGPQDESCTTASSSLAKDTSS

This assay concerns the target T1, human vasopressin V2 receptor subtype (Homo sapiens, UniProt P30518).
T1 construct: host or cells: CHO cells, stably transfected (pZeoSV vector)
Description: Vasopressin binding in CHO cell membranes expressing human vasopressin V2 subtype receptors ([3H]arginine vasopressin radioligand binding). To be noted: 100 nM. Summed up: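 Membranes from CHO cells stably expressing human V2 receptor (25 to 50 μg protein/well) incubated 60 min at room temperature with [3H]arginine vasopressin in Tris-HCl pH 7.4 buffer with MgCl2, BSA and protease inhibitors. Filtration, scintillation counting; percent inhibition at one concentration or IC50 (nM).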
As to `COc1ccccc1-c1ccc(C(=O)N2Cc3ccc(C(=O)N(C)CCc4ccncc4)n3Cc3ccccc32)cc1` [Example 129, 10-[(2′-Methoxy-[1,1′-biphenyl]-4-yl)carbonyl]-N-methyl-N-[2-(4-pyridinyl)ethyl]-10,11-dihydro-5H-pyrrolo[2,1-c][1,4]benzodiazepine-3-carboxamide], 0.1 µM produced 28% inhibition.
To `COc1ccccc1-c1ccc(C(=O)N2Cc3ccc(C(=O)N4CCCCC4c4cccnc4)n3Cc3ccccc32)cc1` (stereo not drawn) [Example 139, {10-[(2′-Methoxy-[1,1′-biphenyl]-4-yl)carbonyl]-10,11-dihydro-5H-pyrrolo[2,1-c][1,4]benzodiazepin-3-yl}[2-(3-pyridinyl)-1-piperidinyl]methanone] belongs 34%.
For `Cc1ccccc1-c1ccc(C(=O)N2Cc3ccc(C(=O)N(C)CCc4ccncc4)n3Cc3ccccc32)cc1C` [Example 127, 10-[(2,2′-Dimethyl-[1,1′-biphenyl]-4-yl)carbonyl]-N-methyl-N-[2-(4-pyridinyl)ethyl]-10,11-dihydro-5H-pyrrolo[2,1-c][1,4]benzodiazepine-3-carboxamide], at 0.1 µM the inhibition was 15%.
Under `COc1ccccc1-c1ccc(C(=O)N2Cc3ccc(C(=O)NCCc4ccccn4)n3Cc3ccccc32)cc1C` [Example 49, 10-[(2′-Methoxy-2-methyl-[1,1′-biphenyl]-4-yl)carbonyl]-N-[2-(2-pyridinyl)ethyl]-10,11-dihydro-5H-pyrrolo[2,1-c][1,4]benzodiazepine-3-carboxamide] stands 26%.
Consider `COc1ccccc1-c1ccc(C(=O)N2Cc3ccc(C(=O)NCc4cccnc4)n3Cc3ccccc32)cc1OC` [Example 45, 10-[(2,2′-Dimethoxy-[1,1′-biphenyl]-4-yl)carbonyl]-N-(3-pyridinylmethyl)-10,11-dihydro-5H-pyrrolo[2,1-c][1,4]benzodiazepine-3-carboxamide], for which the inhibition (commonly the relative decrease from the control value, in per cent) at 0.1 µM was found to be 19%.
To `COc1cc(C(=O)N2Cc3ccc(C(=O)N(C)CCc4ccncc4)n3Cc3ccccc32)ccc1-c1cccc2ccccc12` [Example 134, 10-[3-Methoxy-4-(naphthalen-1-yl)benzoyl]-N-methyl-N-[2-(4-pyridinyl)ethyl]-10,11-dihydro-5H-pyrrolo[2,1-c][1,4]benzodiazepine-3-carboxamide] belongs 1%.
To `Cc1cc(C(=O)N2Cc3ccc(C(=O)N(C)CCc4ccncc4)n3Cc3ccccc32)ccc1-c1ccccc1C(F)(F)F` [Example 137, N-Methyl-10-{[2-methyl-2′-trifluoromethyl-[1,1′-biphenyl]-4-yl]carbonyl}-N-[2-(4-pyridinyl)ethyl]-10,11-dihydro-5H-pyrrolo[2,1-c][1,4]benzodiazepine-3-carboxamide] belongs 11%; to `COc1ccccc1-c1ccc(C(=O)N2Cc3ccc(C(=O)NCc4ccccn4)n3Cc3ccccc32)cc1C` [Example 24, 10-[(2′-Methoxy-2-methyl-[1,1′-biphenyl]-4-yl)carbonyl]-N-(2-pyridinylmethyl)-10,11-dihydro-5H-pyrrolo[2,1-c][1,4]benzodiazepine-3-carboxamide], 26%; to `COc1ccccc1-c1ccc(C(=O)N2Cc3ccc(C(=O)NCc4cccnc4)n3Cc3ccccc32)cc1C` [Example 36, 10-[(2′-Methoxy-2-methyl-[1,1′-biphenyl]-4-yl)carbonyl]-N-(3-pyridinylmethyl)-10,11-dihydro-5H-pyrrolo[2,1-c][1,4]benzodiazepine-3-carboxamide], 24%.
To `O=C(NCc1cccnc1)c1ccc2n1Cc1ccccc1N(C(=O)c1ccc(-c3cccc4ccccc34)cc1Cl)C2` [Example 47, 10-[2-Chloro-4-(naphthalen-1-yl)benzoyl]-N-(3-pyridinylmethyl)-10,11-dihydro-5H-pyrrolo[2,1-c][1,4]benzodiazepine-3-carboxamide] belongs 6%; to `COc1cccc(-c2cc(OC)c(C(=O)N3Cc4ccc(C(=O)NCCc5ccccn5)n4Cc4ccccc43)cc2Cl)c1` [Example 56, 10-[(6-Chloro-3,3′-dimethoxy-[1,1′-biphenyl]-4-yl)carbonyl]-N-[2-(2-pyridinyl)ethyl]-10,11-dihydro-5H-pyrrolo[2,1-c][1,4]benzodiazepine-3-carboxamide], 11%.
`COc1cccc(-c2ccc(C(=O)N3Cc4ccc(C(=O)NCc5cccnc5)n4Cc4ccccc43)cc2OC)c1` [Example 46, 10-[(2,3′-Dimethoxy-[1,1′-biphenyl]-4-yl)carbonyl]-N-(3-pyridinylmethyl)-10,11-dihydro-5H-pyrrolo[2,1-c][1,4]benzodiazepine-3-carboxamide]: the inhibition at 0.1 µM stood at 8%.
